Measured values: publication PMC3625376 (Journal of the American Chemical Society, 2013)

Tested on: blood glucose in diabetic rats
Test: diabetic rat assay
Format: in vivo
Conditions: Figure 5 panels C and D

Substance | activity in lowering blood glucose in diabetic rats (in words)
[Asp^B10, Lys^B28, Pro^B29]-insulin [DKP insulin (biosynthetic)] | fully active
WT insulin (biosynthetic): wild type (wt) biosynthetic insulin used as positive control | fully active
